In ChEMBL document CHEMBL1177779, “Development of dual functional SPECT/fluorescent probes for imaging cerebral beta-amyloid plaques” (Bioorg Med Chem Lett, 2010):
Values belong to the compound of their own block, whether it stands above or below them.

How the values were obtained:
[1] = Displacement of [125I]IMPY from amyloid beta (1-42) after 3 hrs by gamma counting
[2] = system: Spleen; assay: Biodistribution in ddY mouse spleen assessed per gram of tissue at 7.77 KBq, iv after 2 mins by gamma counting; type: ADME, organism-based; conditions: in vivo
[3] = system: Liver; assay: Biodistribution in ddY mouse liver assessed per gram of tissue at 7.77 KBq, iv after 60 mins by gamma counting; type: ADME, organism-based; conditions: in vivo, 1 h
[4] = system: Stomach; assay: Biodistribution in ddY mouse stomach assessed per organ at 7.77 KBq, iv after 60 mins by gamma counting; type: ADME, organism-based; conditions: in vivo, 1 h
[5] = system: Brain; assay: Biodistribution in ddY mouse brain assessed per gram of tissue at 7.77 KBq, iv after 10 mins by gamma counting; type: ADME, organism-based; conditions: in vivo
[6] = system: Heart; assay: Biodistribution in ddY mouse heart assessed per gram of tissue at 7.77 KBq, iv after 30 mins by gamma counting; type: ADME, organism-based; conditions: in vivo, 0.5 h
[7] = system: Brain; assay: Biodistribution in ddY mouse brain assessed per gram of tissue at 7.77 KBq, iv after 2 mins by gamma counting; type: ADME, organism-based; conditions: in vivo
[8] = system: Heart; assay: Biodistribution in ddY mouse heart assessed per gram of tissue at 7.77 KBq, iv after 2 mins by gamma counting; type: ADME, organism-based; conditions: in vivo
[9] = system: Blood; assay: Biodistribution in ddY mouse blood assessed per gram of tissue at 7.77 KBq, iv after 10 mins by gamma counting; type: ADME, organism-based; conditions: in vivo
[10] = system: Pancreas; assay: Biodistribution in ddY mouse pancreas assessed per gram of tissue at 7.77 KBq, iv after 60 mins by gamma counting; type: ADME, organism-based; conditions: in vivo, 1 h
[11] = system: Kidney; assay: Biodistribution in ddY mouse kidney assessed per gram of tissue at 7.77 KBq, iv after 2 mins by gamma counting; type: ADME, organism-based; conditions: in vivo
[12] = system: Spleen; assay: Biodistribution in ddY mouse spleen assessed per gram of tissue at 7.77 KBq, iv after 60 mins by gamma counting; type: ADME, organism-based; conditions: in vivo, 1 h
[13] = system: Kidney; assay: Biodistribution in ddY mouse kidney assessed per gram of tissue at 7.77 KBq, iv after 60 mins by gamma counting; type: ADME, organism-based; conditions: in vivo, 1 h
[14] = system: Blood; assay: Biodistribution in ddY mouse blood assessed per gram of tissue at 7.77 KBq, iv after 30 mins by gamma counting; type: ADME, organism-based; conditions: in vivo, 0.5 h
[15] = system: Intestine; assay: Biodistribution in ddY mouse intestine assessed per gram of tissue at 7.77 KBq, iv after 30 mins by gamma counting; type: ADME, organism-based; conditions: in vivo, 0.5 h
[16] = system: Intestine; assay: Biodistribution in ddY mouse intestine assessed per gram of tissue at 7.77 KBq, iv after 60 mins by gamma counting; type: ADME, organism-based; conditions: in vivo, 1 h
[17] = system: Pancreas; assay: Biodistribution in ddY mouse pancreas assessed per gram of tissue at 7.77 KBq, iv after 30 mins by gamma counting; type: ADME, organism-based; conditions: in vivo, 0.5 h
[18] = system: Pancreas; assay: Biodistribution in ddY mouse pancreas assessed per gram of tissue at 7.77 KBq, iv after 2 mins by gamma counting; type: ADME, organism-based; conditions: in vivo
[19] = system: Kidney; assay: Biodistribution in ddY mouse kidney assessed per gram of tissue at 7.77 KBq, iv after 10 mins by gamma counting; type: ADME, organism-based; conditions: in vivo
[20] = system: Heart; assay: Biodistribution in ddY mouse heart assessed per gram of tissue at 7.77 KBq, iv after 10 mins by gamma counting; type: ADME, organism-based; conditions: in vivo
[21] = system: Brain; assay: Biodistribution in ddY mouse brain assessed per gram of tissue at 7.77 KBq, iv after 60 mins by gamma counting; type: ADME, organism-based; conditions: in vivo, 1 h
[22] = system: Brain; assay: Biodistribution in ddY mouse brain assessed per gram of tissue at 7.77 KBq, iv after 30 mins by gamma counting; type: ADME, organism-based; conditions: in vivo, 0.5 h
[23] = system: Spleen; assay: Biodistribution in ddY mouse spleen assessed per gram of tissue at 7.77 KBq, iv after 10 mins by gamma counting; type: ADME, organism-based; conditions: in vivo
[24] = system: Spleen; assay: Biodistribution in ddY mouse spleen assessed per gram of tissue at 7.77 KBq, iv after 30 mins by gamma counting; type: ADME, organism-based; conditions: in vivo, 0.5 h
[25] = system: Intestine; assay: Biodistribution in ddY mouse intestine assessed per gram of tissue at 7.77 KBq, iv after 10 mins by gamma counting; type: ADME, organism-based; conditions: in vivo
[26] = system: Blood; assay: Biodistribution in ddY mouse blood assessed per gram of tissue at 7.77 KBq, iv after 2 mins by gamma counting; type: ADME, organism-based; conditions: in vivo
[27] = system: Liver; assay: Biodistribution in ddY mouse liver assessed per gram of tissue at 7.77 KBq, iv after 30 mins by gamma counting; type: ADME, organism-based; conditions: in vivo, 0.5 h
[28] = system: Intestine; assay: Biodistribution in ddY mouse intestine assessed per gram of tissue at 7.77 KBq, iv after 2 mins by gamma counting; type: ADME, organism-based; conditions: in vivo
[29] = system: Liver; assay: Biodistribution in ddY mouse liver assessed per gram of tissue at 7.77 KBq, iv after 10 mins by gamma counting; type: ADME, organism-based; conditions: in vivo
[30] = system: Stomach; assay: Biodistribution in ddY mouse stomach assessed per organ at 7.77 KBq, iv after 2 mins by gamma counting; type: ADME, organism-based; conditions: in vivo
[31] = system: Pancreas; assay: Biodistribution in ddY mouse pancreas assessed per gram of tissue at 7.77 KBq, iv after 10 mins by gamma counting; type: ADME, organism-based; conditions: in vivo
[32] = system: Stomach; assay: Biodistribution in ddY mouse stomach assessed per organ at 7.77 KBq, iv after 30 mins by gamma counting; type: ADME, organism-based; conditions: in vivo, 0.5 h
[33] = system: Heart; assay: Biodistribution in ddY mouse heart assessed per gram of tissue at 7.77 KBq, iv after 60 mins by gamma counting; type: ADME, organism-based; conditions: in vivo, 1 h
[34] = system: Stomach; assay: Biodistribution in ddY mouse stomach assessed per organ at 7.77 KBq, iv after 10 mins by gamma counting; type: ADME, organism-based; conditions: in vivo
[35] = system: Blood; assay: Biodistribution in ddY mouse blood assessed per gram of tissue at 7.77 KBq, iv after 60 mins by gamma counting; type: ADME, organism-based; conditions: in vivo, 1 h
[36] = system: Liver; assay: Biodistribution in ddY mouse liver assessed per gram of tissue at 7.77 KBq, iv after 2 mins by gamma counting; type: ADME, organism-based; conditions: in vivo
[37] = system: Kidney; assay: Biodistribution in ddY mouse kidney assessed per gram of tissue at 7.77 KBq, iv after 30 mins by gamma counting; type: ADME, organism-based; conditions: in vivo, 0.5 h

Ki [1]: 108 nM
inhibition [1]: Dose-dependent effect
SMILES: CC1=CC(C)=[N+]2C1=Cc1ccc(/C=C/c3ccc(-c4ccc(I)cc4)s3)n1[B-]2(F)F

Drug uptake [2]: 16.12 % ID/g
Drug uptake [3]: 45.78 % ID/g
Drug uptake [4]: 5.5 %ID
Drug uptake [5]: 0.19 % ID/g
Drug uptake [6]: 2.31 % ID/g
Drug uptake [7]: 0.4 % ID/g
Drug uptake [8]: 5.59 % ID/g
Drug uptake [9]: 4.09 % ID/g
Drug uptake [10]: 0.92 % ID/g
Drug uptake [11]: 5.39 % ID/g
Drug uptake [12]: 21.52 % ID/g
Drug uptake [13]: 4.43 % ID/g
Drug uptake [14]: 3.09 % ID/g
Drug uptake [15]: 1.91 % ID/g
Drug uptake [16]: 3.04 % ID/g
Drug uptake [17]: 0.72 % ID/g
Drug uptake [18]: 1.19 % ID/g
Drug uptake [19]: 4.79 % ID/g
Drug uptake [20]: 2.95 % ID/g
Drug uptake [21]: 0.14 % ID/g
Drug uptake [22]: 0.14 % ID/g
Drug uptake [23]: 26.9 % ID/g
Drug uptake [24]: 28.21 % ID/g
Drug uptake [25]: 0.93 % ID/g
Drug uptake [26]: 11.67 % ID/g
Drug uptake [27]: 45.87 % ID/g
Drug uptake [28]: 0.48 % ID/g
Drug uptake [29]: 46.02 % ID/g
Drug uptake [30]: 1.4 %ID
Drug uptake [31]: 0.74 % ID/g
Drug uptake [32]: 4.79 %ID
Drug uptake [33]: 2.3 % ID/g
Drug uptake [34]: 4.73 %ID
Drug uptake [35]: 2.44 % ID/g
Drug uptake [36]: 35.51 % ID/g
Drug uptake [37]: 4.46 % ID/g
SMILES: CC1=CC(C)=[N+]2C1=Cc1ccc(/C=C/c3ccc(-c4ccc([125I])cc4)s3)n1[B-]2(F)F
